From PubChem BioAssay (NCI)
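The compound was tested at five concentrations on cells cultured in 96-well plates, with a 48-hour exposure period. GI50 is the concentration that inhibits growth by half. TGI is the concentration that stops growth completely.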

Legend:
Test in all cases: NCI anticancer screen, dose series, 48 h
LXFL 529 NSCLC = test system: LXFL 529 NSCLC
DLD-1 colon = test system: DLD-1 colon
HOP-18 NSCLC = test system: HOP-18 NSCLC
DMS 273 small cell lung = test system: DMS 273 small cell lung
DMS 114 small cell lung = test system: DMS 114 small cell lung

| Compound | TGI (LXFL 529 NSCLC) | TGI (DLD-1 colon) | TGI (HOP-18 NSCLC) | TGI (DMS 273 small cell lung) | TGI (DMS 114 small cell lung) | GI50 (DLD-1 colon) | GI50 (HOP-18 NSCLC) | GI50 (DMS 273 small cell lung) | GI50 (DMS 114 small cell lung) | GI50 (LXFL 529 NSCLC) |
| --- | --- | --- | --- | --- | --- | --- | --- | --- | --- | --- |
| COC1C2c3ccccc3C(C#N)(Cc3ccc4c(c32)OCO4)N1C(=O)c1ccccc1 (stereo not drawn) | > 100 µM | > 100 µM | > 100 µM | 98.3 µM | > 100 µM |  |  |  |  |  |
| CCOc1ccc(NC(=O)/C(=C/c2ccccc2)C(C)=O)cc1 |  | 24 µM | 25.5 µM | 43.2 µM | 26.9 µM |  |  |  |  |  |
| COc1ccc(C(=O)Nc2ccccc2C#N)cc1 |  | > 100 µM | > 100 µM | > 100 µM |  |  |  |  |  |  |
| Fc1cccc(C=NC23CC4CC(CC(C4)C2)C3)c1 | > 100 µM | > 100 µM | > 100 µM | > 100 µM | > 100 µM |  |  |  |  |  |
| C=C1C(=O)C23C(O)C1CCC2C12CO[C@]3(O)[C@@H](O)C1C(C)(C)CCC2O (stereo partly drawn) | 6.03 µM | 33.8 µM | 25.5 µM | 28.1 µM | 20.7 µM |  |  |  |  |  |
| COc1ccccc1NS(=O)(=O)c1cc(C(C)(C)C)ccc1OCCOc1ccc(C(C)(C)C)cc1S(=O)(=O)Nc1ccccc1OC |  | > 100 µM | > 100 µM | > 100 µM | > 100 µM |  |  |  |  |  |
| CCN1CCC(O)(c2ccccc2)C(C(=O)c2ccccc2)C1 (stereo not drawn) | 29.4 µM | 37 µM | 28 µM | > 100 µM | > 67.4 µM |  |  |  |  |  |
| O=c1[nH]cnc2c1nnn2C1C=C(CO)C(O)C1O (stereo not drawn) | > 100 µM | > 100 µM | > 100 µM | 60.1 µM | > 100 µM |  |  |  |  |  |
| Cc1cc2c(C)nn(Cc3ccc(Cl)cc3Cl)c2c(C#N)c1C | > 100 µM | > 100 µM | > 100 µM | > 100 µM |  |  |  |  |  |  |
| COc1cc(-c2[nH]ncc2CCCC(=O)Nc2ccccc2[N+](=O)[O-])ccc1O | > 100 µM | > 100 µM | > 100 µM | > 100 µM | 93.2 µM |  |  |  |  |  |
| C[CH2][Sn]([CH2]C)([O]C(=O)c1cc(OC)c(OC)c(OC)c1)[O][Sn]([CH2]C)([CH2]C)[O]C(=O)c1cc(OC)c(OC)c(OC)c1 |  | > 74.1 µM | 42.4 µM | > 100 µM | 29.1 µM | 27.9 µM | 22.2 µM | 84.5 µM | 15.1 µM |  |
| CCCCCNC(=O)C1C(=O)N(CCCCC)C(=O)/C1=N\N (stereo not drawn) | > 100 µM | > 100 µM | > 100 µM |  |  |  |  |  |  |  |
| COc1ccc(Nc2nc3c(N)cc(C(F)(F)F)cc3nc2-c2ccccc2)cc1 | > 100 µM | > 100 µM | > 100 µM | > 100 µM | > 100 µM |  |  |  |  |  |
| CC/C(=C(/CC)c1ccc(OP(=O)([O-])[O-])cc1)c1ccc(OP(=O)([O-])[O-])cc1.N.N.N.N.[Pt+4].[Pt+4] | 31.6 µM | > 100 µM | > 100 µM | 18.9 µM |  | 9.51 µM | 59 µM | 2.17 µM |  | 14 µM |
| CCN1N=CSC12C(=O)N(c1ccccc1)C(=O)N2c1ccccc1 (stereo not drawn) | > 100 µM | > 100 µM | > 100 µM |  | > 100 µM |  |  |  |  |  |
| COC(=O)[C@@]12C3=NO[C@]1(C(=O)OC)C(O[Si](C)(C)C(C)(C)C)C1OC(C)(C)OC1[C@@H]2[C@@H](OCc1ccccc1)CC3 (stereo partly drawn) | > 100 µM | > 100 µM | > 100 µM | > 100 µM | > 100 µM |  |  |  |  |  |
| COc1ccc(C=O)c(N(C)C(=O)C(C)(C)C)c1 |  |  | > 100 µM | > 100 µM | > 100 µM |  |  |  |  |  |
| COC(=O)C12C3C=CC(O3)C1C1C=CC2O1 (stereo not drawn) | > 100 µM | > 100 µM | > 100 µM | > 100 µM |  |  |  |  |  |  |
| CCOC(=O)C1=C(O)CSC1=Nc1ccc(N=C2SCC(O)=C2C(=O)OCC)cc1 | 57.9 µM | 50.4 µM |  | 42.8 µM | 59.6 µM |  |  |  |  |  |
| COC(=O)C1(c2ccc(OC)cc2)NC(c2ccccc2)C2C(=O)N(c3ccc(OC)cc3)C(=O)C21 (stereo not drawn) | > 100 µM | > 100 µM |  | > 100 µM | > 100 µM |  |  |  |  |  |
| Cn1c(=O)c2c(nc3n2C(CCl)CO3)n(C)c1=O (stereo not drawn) |  | > 100 µM | > 100 µM | > 100 µM | > 100 µM |  |  |  |  |  |
| O=C1/C(=C/c2ccccc2Cl)COc2ccccc21 | 31.6 µM | 29.4 µM | 24 µM | 31.6 µM | 36.2 µM |  |  |  |  |  |
| Nc1ccc(C(=O)O)c2[nH]c3ccccc3c(=O)c12 | > 100 µM | > 100 µM | > 100 µM | > 100 µM | > 100 µM |  |  |  |  |  |
| Nc1ncn([C@@H]2C=C(CO)C(O)C2O)c(=O)n1 (stereo partly drawn) | > 100 µM | > 100 µM | > 100 µM | > 100 µM |  |  |  |  |  |  |
| Cc1ccc(C)c(NC(=O)CCC(=O)CC(=O)C(C)(C)C)c1 | > 100 µM | > 100 µM | > 100 µM | > 100 µM | > 100 µM |  |  |  |  |  |
| COc1ccc(C(=O)Nc2ccccc2)cc1[N+](=O)[O-] | > 100 µM | > 100 µM |  | > 100 µM | > 100 µM |  |  |  |  |  |
| Nc1cc2c3c(cccc3c1)C(=O)N(CCN1CCN(CCN3C(=O)c4cccc5cc(N)cc(c45)C3=O)CC1)C2=O | > 100 µM |  | > 100 µM | > 100 µM | > 100 µM |  |  |  |  |  |
| COc1cc(C2c3cc4c(cc3[C@@H](OCCN)[C@H]3COC(=O)C23)OCO4)cc(OC)c1O (stereo partly drawn) | 7.75 µM | 6.76 µM | > 100 µM |  | 0.162 µM |  |  |  |  |  |
